# Test results: patent publication US8956656B2, “Production of small particles” (Nano Fiber Matrices B.V., priority 2003, dated 2015)
# How the values were obtained:
# Type in all cases: physicochemical
# Gel test of gelators = conditions: 3 mg/mL in H2O
# Description: Gel test: 0.3 mg/mL in H2O or PBS: clear gel; 0.5 mg/mL in H2O/DMSO (19:1): clear gel; 0.6 mg/mL in H2O/EtOH (19:1): clear gel; 25 mg/ml in EtOH: gel.
# Gel test: 3 mg/mL in H2O: gel.
# Gel test: 1.0 mg/mL in H2O: gel; acetone 7.0 mg/mL: clear gel.
# Gel test: 3 mg/mL in H2O: clear gel.
# Gel test: 3.0 mg/mL in H2O: gel
# [1] = TEM analysis of particle size in gel or freeze-dried powder
# Description: (§1) To a solution containing 4.6 mg (7.6×10^−3 mmol) of cHexAmMetOH gelator and 1.3 mg (3.8×10^−3 mmol) of danazol in 100 μL of DMSO, 900 μL of distilled water were quickly added. […] In a reference sample consisting only of danazol in 100 μL of DMSO and 900 μL of distilled water, rod-shaped danazol particles are 0.5-10 μm wide and 15-53 μm long.
# as §1, with “7” for “4.6”, “cHexAmPheOCH2CH2OCH2CH2OH” for “cHexAmMetOH”
# Example 6 was repeated but with an increased molar ratio of gelator to danazol, of 5:1.
# To a solution containing 1.96 mg (2.9×10^−3 mmol) of cHexAm(PheAQ)(CH2CH2OCH2CH2OH)2 gelator and 1.0 mg (2.9×10^−3 mmol) of danazol in 50 μL of DMSO, 950 μL of distilled water were quickly added.
# In a reference sample consisting only of danazol in 100 μL of DMSO to which 900 μL of distilled water was added, rod-shaped danazol particles were formed, which were 0.5-10 μm wide and 15-53 μm long.
# Example 8 was repeated with an increased molar ratio of gelator to danazol (from 1:1 to 2:1).
# Freeze-drying of a gel containing cHexAmPheOCH2CH2OCH2CH2OH and danazol in a 5:1 molar ratio, in DMSO/water mixture (50 μL/950 μL) yielded a dry powder of gelator and danazol.
# Freeze-drying of a gel containing cHexAm(PheAQ)(CH2CH2O CH2CH2OH)2 and danazol in a 5:1 molar ratio, in DMSO/water (50 μL/950 μL) yielded a dry powder of gelator and danazol. […]
# [2] = Optical microscopy of gels and reference solutions
# Description: Furosemide, 5 mg, (15×10^−3 mmol), together with 12.5 mg (20×10^−3 mmol) of cHexAm(PheAmBn)(CH2CH2OCH2CH2OH)2 (A), or 12.9 mg (20×10^−3 mmol) of cHexAm(PheAmPhOMe)(CH2CH2OCH2CH2OH)2 (B), or 18.4 mg (20×10^−3 mmol) of cHexAmPheOCH2CH2OCH2CH2OH(C), were dissolved in 50 μL of propylene glycol, 50 μL of PEG400, and 900 μL of water by heating until a clear solution was obtained. As reference, a sample without gelator was prepared (D).
# Danazol, 1 mg, (3×10^−3 mmol), together with 3.9 mg (6×10^−3 mmol) of cHexAm(PheAmAQ)(CH2CH2OCH2CH2OH)2 (A), or 5.4 mg (6×10^−3 mmol) of cHexAmPheOCH2CH2OCH2CH2OH (B), were dissolved in 50 μL of DMSO and 950 μL of distilled water by heating until a clear solution was obtained. As reference, a sample without gelator was prepared (C).
# Cyclosporin A, 2.5 mg, (2.1×10^−3 mmol), together with 6.3 mg (10×10^−3 mmol) of cHexAm(PheAmBn)(CH2CH2OCH2CH2OH)2 (A) or 9.2 mg (10×10^−3 mmol) of cHexAmPheOCH2CH2OCH2CH2OH (B), were dissolved in 25 μL of propylene glycol, 25 μL of PEG400, and 450 μL of distilled water by heating until a clear solution was obtained. As reference, a sample without gelator was prepared (C).
# [3] = Stability in time of pyrene particles in a gel (TEM)
# Description: To determine the stability in time of pyrene particles in a gel, samples were prepared as in Example 3 and examined with TEM after 7 days, 18 days, 1 month and 2 months. As reference, samples containing only pyrene in DMSO/H2O (100 μL/900 μL) were also prepared. Moreover, to determine the effect of the gelator in solution, i.e. not of the gel, samples containing 4 mg (6.0×10^−3 mmol) of cHexAm(PheAQ)(CH2CH2OCH2CH2OH)2 gelator, 1.22 mg (6.0×10^−3 mmol) of pyrene, 100 μL of DMSO and 900 μL of 1N HCl were prepared. The presence of HCl causes the gelator to dissolve and therefore the sample remains a solution. All samples were kept at room temperature, in the dark. FIG. 1: after 7 days only very few particles, 37-185 nm, are present in the sample; after 18 days more particles, 30-190 nm, can be observed; after 1 month also some crystals, ˜150 nm, can be observed; after 2 months more crystals with sizes ranging from 80 to 200 nm are present. FIG. 2: after 7 days crystals, 0.2-3 μm, can be observed; after 18 days more of such crystals can be observed; after 1 month also larger crystals, 6 μm, can be seen; after 2 months more of such crystals can be observed. FIG. 3: after 7 days, 18 days or 1 month crystals, 0.4 to 9 μm, are present; after 2 months crystals, 2-12 μm, can be observed.
# [4] = gel of cHexAm(PheAQ)(CH2CH2OCH2CH2OH)2, 1:1 molar
# [5] = gel of cHexAm(PheAQ)(CH2CH2OCH2CH2OH)2, gelator:danazol 2:1
# [6] = gel of cHexAm(PheAQ)(CH2CH2OCH2CH2OH)2, gelator:danazol 5:1
# [7] = gel of cHexAmPheOCH2CH2OCH2CH2OH, 2:1 molar
# [8] = gel of cHexAmPheOCH2CH2OCH2CH2OH, gelator:danazol 5:1
# [9] = reference sample, only danazol in 100 μL DMSO and 900 μL water
# [10] = FIG. 6 (b): gel of cHexAmPheOCH2CH2OCH2CH2OH, DMSO/water
structure (smiles),measurement,setting,value
O=C(O)[C@@H]1C[C@H](C(=O)O)C[C@H](C(=O)N[C@@H](Cc2ccccc2)C(=O)NCc2ccccc2)C1 [cHex(AmPheAmBn)(COOH)2],Gel test,Gel test of gelators,gel
COc1ccc(NC(=O)[C@H](Cc2ccccc2)NC(=O)[C@@H]2C[C@H](C(=O)O)C[C@H](C(=O)O)C2)cc1 [cHex(AmPheAmPhOMe)(COOH)2],Gel test,Gel test of gelators,clear gel
C#C[C@]1(O)CC[C@H]2[C@@H]3CCC4=Cc5oncc5C[C@]4(C)[C@H]3CC[C@@]21C [danazol],average size of danazol particles,"[1]; freeze-dried powder of gel of cHexAm(PheAQ)(CH2CH2O CH2CH2OH)2, 5:1, DMSO/water 50/950 μL",14-70 nm
same,width of very few rod-shaped danazol particles,"[1]; freeze-dried powder of gel of cHexAmPheOCH2CH2OCH2CH2OH, 5:1",500-900 nm
same,average size of danazol particles,"[1]; freeze-dried powder of gel of cHexAmPheOCH2CH2OCH2CH2OH, 5:1, DMSO/water 50/950 μL",20 nm
same,length of some rod-shaped danazol particles,[1]; [4],9 μm
same,width of some rod-shaped danazol particles,[1]; [4],0.7 μm
same,average size of danazol particles,"[1]; gel of cHexAm(PheAQ)(CH2CH2OCH2CH2OH)2, 1:1 molar, DMSO/water 50/950 μL",140-700 nm
same,average size of danazol particles,[1]; [5],28 nm
same,size of very few danazol particles,[1]; [5],10 μm
same,average size of danazol particles,[1]; [6],14 nm
same,size of some danazol particles,[1]; [6],400 nm
same,length of rod-shaped danazol particles,"[1]; gel of cHexAmMetOH, 2:1 molar, DMSO/water 100/900 μL",1-10 μm
same,length of rod-shaped danazol particles,[1]; [7],0.6-6 μm
same,width of rod-shaped danazol particles,[1]; [7],0.2-0.6 μm
same,average size of danazol particles,[1]; [8],20 nm
same,size of some danazol particles,[1]; [8],approximately 200 nm
same,length of rod-shaped danazol particles,[1]; [9],15-53 μm
same,width of rod-shaped danazol particles,[1]; [9],0.5-10 μm
same,amorphous globular particles,"[2]; FIG. 6 (a): gel of cHexAm(PheAmAQ)(CH2CH2OCH2CH2OH)2, DMSO/water",< 2 μm
same,amorphous globular particles,[2]; [10],< 2 μm
same,some needle-shaped crystals (long axis),[2]; [10],25-50 μm
same,rod-shaped crystals,"[2]; FIG. 6 (c): reference without gelator, DMSO/water",20-120 μm
NS(=O)(=O)c1cc(C(=O)O)c(NCc2ccco2)cc1Cl [furosemide],butterfly-shaped crystals (long axis),"[2]; FIG. 5 (a): gel of cHexAm(PheAmBn)(CH2CH2OCH2CH2OH)2, PG/PEG400/water",~25 μm
same,butterfly-shaped crystals (long axis),"[2]; FIG. 5 (b): gel of cHexAm(PheAmPhOMe)(CH2CH2OCH2CH2OH)2, PG/PEG400/water",~25 μm
same,globular crystals,"[2]; FIG. 5 (c): gel of cHexAmPheOCH2CH2OCH2CH2OH, PG/PEG400/water",~25 μm
same,rod-shaped crystals (long axis),"[2]; FIG. 5 (d): reference without gelator, PG/PEG400/water",25-250 μm
c1cc2ccc3cccc4ccc(c1)c2c34 [pyrene],size of pyrene particles,"[3]; gel of cHexAm(PheAQ)(CH2CH2OCH2CH2OH)2, DMSO/H2O, room temperature, dark, after 7 days (FIG. 1)",37-185 nm
same,size of pyrene crystals,"[3]; gel of cHexAm(PheAQ)(CH2CH2OCH2CH2OH)2, after 1 month (FIG. 1)",~150 nm
same,size of pyrene particles,"[3]; gel of cHexAm(PheAQ)(CH2CH2OCH2CH2OH)2, after 18 days (FIG. 1)",30-190 nm
same,size of larger pyrene crystals,"[3]; gelator in solution, DMSO/1N HCl, after 1 month (FIG. 2)",6 μm
same,size of pyrene crystals,"[3]; gelator in solution, DMSO/1N HCl, after 7 days (FIG. 2)",0.2-3 μm
same,size of pyrene crystals,"[3]; reference, only pyrene in DMSO/H2O, after 2 months (FIG. 3)",2-12 μm
